# Data: patent publication US20040191842A1, “Chemopreventive and therapeutic aspects of polyphenolic compositions and assays” (Medical College of Georgia Research Institute, Inc., priority 2002, published 2004)
# What was measured:
# [1] = system: OSC-4 cells; assay: MTT assay (SDH activity), OSC-4 cells; type: cell-based, human; details: 24 hours
# Method: MTT [3-(4,5-dimethylthiazol-2-yl)-2,5-diphenyl tetrazolium bromide] assay. This method directly detects the activity of mitochondrial succinate dehydrogenase (SDH). Changes in SDH activity is a measurement of cell viability when stress is introduced in cell culture through chemical or physical means. Cells (1.5×10^4 cells/well) were seeded in a 96-well microplate and treated with the indicated doses of EGCG for 24 hours. After the treatment, the cells in each well were washed with 200 μl of phosphate-buffered saline (PBS), incubated with 100 μl of 2% MTT in a solution of 0.05 M Tris, 0.5 mM MgCl2, 2.5 mM CoCl2, and 0.25 M disodiumn succinate as substrate (Sigma) at 37° C. for 30 minutes. Cells were fixed in situ by the addition of 100 μl of 4% formalin in 0.2 M Tris (pH 7.7), and after a 5 minute incubation at room temperature liquid was removed and the wells were allowed to dry. Each well was rinsed with 200 μl water and cells were solubilized by the addition of 100 μl of 6.35% 0.1 N NaOH in DMSO. The colored formazan product was measured by a Thermo MAX micro plate reader (Molecular Devices Corp., Sunnyvale, Calif.) at a wavelength of 562 nm. Experiments were repeated three times with triplicate samples for each experiment.
# [2] = system: caspase 14 and p21; assay: Caspase 14 and p21 expression in OSC2 cells; type: cell-based, human; details: EGCG
# Method: To identify additional factors those suppress EGCG -induced apoptosis and facilitate cell differentiation in NHEK, exponentially growing NHEK (Cambrex, Baltimore, Md.) were exposed to 100 μM EGCG for 0, 2, 6 and 24 hours, prior to total RNA isolation using the Qiagen RNeasy mini kit (Valencia, Calif.), which was followed by RT-PCR labeling and hybridization with the Human Apoptosis Macroarray membrane (Sigma-Genosys, The Woodlands, Tex.). Total cell lysates also were collected following a variety of EGCG treatments. The protein levels for caspase 14 and p21 were determined by immuno-blotting using antibodies specific for caspase 14 and p21 (Santa Cruz Biotechnology, Santa Cruz, Calif.).
# Normal human epidermal keratinocytes (NHEK; Cambrex), and oral squamous cell carcinoma (OSC2) cells, originally from gingival tissue, were compared. Exponentially growing cells were exposed to 50 or 100 μM EGCG for 0 hours, 2 hours, 6 hours or 24 hours. Cells were harvested for total RNA, which was examined by apoptosis macroarrays (Sigma Genosys), followed by phosphorimagery and data analysis (GeneSpring). Protein production of expressed genes was confirmed by Western blotting of whole cell lysates.
# [3] = system: OSC-2 cells; assay: Intracellular ROS levels (DFDA assay), OSC-2 cells; type: cell-based, human
# Method: (§1) Measurement of intracellular ROS levels. The ROS assay measures the accumulation of intracellular ROS levels. The non-fluorescent dye DFDA passively diffuses into cells, where the acetates are cleaved by intracellular esterases. […] Thus, values of the fluorescence in the cell cultures are constantly rising in this assay. Cells (1.5×10^4 cells/well) were incubated with Hallam's physiological saline (HPS) containing DFDA (10 μM) in a 96-well microplate for 30 minutes at 37° C. After the incubation, cells were washed three times with HPS and then incubated with HPS containing EGCG (15-200 μM) or diamide (5 mM) for the indicated time periods. The intracellular ROS levels were measured by using a fluorescence plate reader (BIO-TEK FL600, Bio-Tek Instruments, Inc., Winooski, Vt.), at an excitation wavelength of 485 nm and an emission wavelength of 530 nm.
# as §1, with “assay (DFDA assay)” for “assay”, “dye dichlorofluorescein diacetate (DFDA)” for “dye DFDA”, “this assay due to the accumulation of ROS.” for “this assay.”, “EGCG (50-200” for “EGCG (15-200”, “indicated times.” for “indicated time periods.”
# [4] = system: SOD; assay: SOD activity assay in cell lysates; type: cell-based, human; details: 50 μM EGCG, 30 minutes; NHEK, OSC-2, OSC-4
# Method: Assays for SOD and catalase activities. Cells (1×10^6 cells/well) were incubated with or without EGCG (50 μM) in FilterCap 50 ml flasks (Nagel Nunc International, Rochester, N.Y.) for 30 minutes at 37° C. After the incubation, cells were harvested and disrupted in 100 μl of 10 mM Tris-HCl (pH 7.4) containing 0.1%(v/v) Triton X-100, 10 μg/ml leupeptin, 10 μg/ml pepstatin A and 100 mM phenylmethylsulfonyl fluoride by three cycles of freezing/thawing. After centrifugation at 17,000×g for 20 minutes at 4° C., the supernatants were used for SOD and catalase assays using the SOD Assay Kit-WST (Dojindo Molecular Technologies, Inc., Gaithersburg, Md.) and the AMPLEX Red Catalase Assay Kit (Molecular Probes), respectively. The activities of SOD and catalase were calibrated using a standard curve prepared with purified human SOD and catalase. The activities of SOD and catalase were expressed as units (U)/10^6 cells.
# Assays for SOD and catalase activities. Cells (10^5 cells/well) were incubated with or without EGCG (50 μM) in 24-well culture plates for desirable time periods at 37° C. After the incubation, cells were harvested and disrupted in 100 μl of 10 mM Tris-HCl (pH 7.4) containing 0.1% (v/v) Triton ×-100, 10 μg/ml leupeptin, 10 μg/ml pepstatin A and 100 mM PMSF by three cycles of freezing/thawing. […] The activities of SOD and catalase were expressed as units (U)/10^6 cells.
# [5] = system: caspase 3; assay: Caspase 3 activity assay, mammary epithelial cells; type: cell-based, human; details: 100 μM EGCG, 24 hours
# Method: Caspase 3 activity assay. The Caspase 3 Apoptosis Detection Kit was purchased from Santa Cruz Biotech. Inc. In a 24 well tissue culture plate, 10^5 cells/well of control or treated cells in triplicates were plated. […] To each well, 100 μl of 2×reaction buffer was added with 10 mM DTT. Finally, 5 μl of DEVD-AFC substrate was added to each well containing cell lysates. The reaction mixtures were incubated for 1 hour at 37° C. The caspase 3 activity in each well was measured using a fluorescence plate reader set for 405 nanometer (nm) excitation and 505 nm emission.
# [6] = system: salivary acenar cells (AC) and duct cells (DC), HSG and OSC tumor cells; assay: Protection of salivary gland cells from CDDP and UVC (SDH, BrdU); details: pretreatment of EGCG
# Source text: Human immortalized salivary acenar cells (AC) and duct cells (DC), along with human salivary gland tumor cells (HSG, a radiation-resistant cell line) and oral squamous carcinoma cells (OSC) were either treated by CDDP or irradiated by UVC with or without the presence of EGCG, followed by determination of the mitochondrial succinate dehydrogenase (SDH) activity, a measurement of mitochondrial damage and BrdU incorporation determination.
structure (smiles),measurement,setting,value
"O=C(O[C@@H]1Cc2c(O)cc(O)cc2O[C@@H]1c1cc(O)c(O)c(O)c1)c1cc(O)c(O)c(O)c1 [EGCG, (−)-epigallocatechin-3-gallate]",mitochondrial SDH activity,[1]; 50 μM EGCG,did not show significant changes
same,"SDH activity, of untreated control",[1]; 200 μM EGCG,less than 75%
same,mitochondrial SDH activity,[1]; 200 μM EGCG,significantly reduced SDH activity and DNA synthesis
same,caspase 14 and p21 levels,[2]; identical conditions to NHEK,failed to show increased caspase 14 or decreased p21
same,p21 mRNA elevated,[2]; within 2 hours,3 fold
same,intracellular ROS levels vs controls,"[3]; 50 μM EGCG, 60 minute exposure",remained comparable to the controls
same,intracellular ROS levels vs control,"[3]; 50 or 200 μM EGCG, beyond 120 minutes",remained significantly higher than the control levels
same,H2O2 concentration producing ROS equivalent to 200 μM EGCG,[3]; first hour,50 µM
same,SOD activity,[4],did not alter SOD activity
same,increase in caspase 3 activity compared to control,[5],3 fold
same,protection from CDDP and UVC cytotoxicity,[6],"significantly protected the normal salivary gland cells from CDDP and UVC, but not the tumor cells"
